Source: US9481654B2, “Compositions and methods for inhibition of the JAK pathway” (Rigel Pharmaceuticals, Inc., priority 2006, dated 2016)

Tests used:
Type in all cases: cell-based
[1] = system: IFNγ induced ICAM-1 (CD54) up-regulation in U937 human monocytic cells (JAK/Stat pathway); experiment: U937 IFNγ ICAM1 FACS Assay; conditions: Table III Example 6, 10 ng/mL IFNγ, 18-24 hours
Excerpt: A549 lung epithelial cells and U937 cells up-regulate ICAM-1 (CD54) surface expression in response to a variety of different stimuli. Therefore, using ICAM-1 expression as readout, test compound effects on different signaling pathways can be assessed in the same cell type. Stimulation with IL-1β through the IL-1β receptor activates the TRAF6/NFκB pathway resulting in up-regulation of ICAM-1. IFNγ induces ICAM-1 up-regulation through activation of the JAK1/JAK2 pathway. The up-regulation of ICAM-1 can be quantified by flow cytometry across a compound dose curve and EC50 values are calculated. Exemplary assays of this type are described in greater detail in Examples 5 and 6. U937 human monocytic cells up-regulate ICAM-1 (CD54) surface expression in response to a variety of different stimuli. Therefore, using ICAM-1 expression as readout, compound effects on different signaling pathways can be assessed in the same cell type. IFNγ up-regulates ICAM-1 through activation of the JAK/Stat pathway. In this example, the up-regulation of ICAM-1 by IFNγ was assessed. […] The cells were then plated at a concentration of 100,000 cells per 160 μL in 96 well flat bottom plates. The test compounds were then diluted as follows: 10 mM test compound was diluted 1:5 in DMSO (3 μL 10 mM test compound in 12 μL DMSO), followed by a 1:3 serial dilution of test compound in DMSO (6 μL test compound serially diluted into 12 μL DMSO to give 3-fold dilutions). […] For control wells, 4 μL of DMSO was diluted into 76 μL 10% RPMI. […] The cells and compounds were then pre-incubated for 30 minutes at 37° C. with 5% CO2. […] The cells were kept under conditions for stimulation for 18-24 hours at 37° C. with 5% CO2. […] Cells were spun down at 1000 rpm for 5 minutes at 4° C., following which the supernatant was removed. […] The cells were then incubated on ice in the dark for 30 minutes. […] After suspension, the cells were centrifuged at 1000 rpm for 5 min at 4° C. […] Detection was performed using a BD LSR I System Flow Cytometer, purchased from BD Biosciences of San Jose, Calif. The live cells were gated for live scatter and the geometric mean of ICAM-APC was measured (Becton-Dickinson CellQuest software version 3.3, Franklin Lakes, N.J.). Both % live cells and ICAM-1 expression was analyzed. The assays for the test compounds were carried out in parallel with a control compound of known activity.

[2] = system: primary human T-cells (IL-2 induced proliferation, JAK-1/JAK-3, Stat-5); experiment: Primary Human T-Cell Proliferation Assay Stimulated with IL-2 (CellTiter-Glo); conditions: Table III Example 4
Procedure, shortened: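 Read-out is intracellular ATP luminescence (CellTiter-Glo) after 72 h at 37 °C of IL-2-driven growth. Cells, pre-stimulated via TCR and CD28 then washed free of IL-2, were resuspended in Yssel's medium, given 80 U/mL IL-2 in the cell suspension plus duplicate compound; unstimulated wells lacked IL-2.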

[3] = system: IL-4 stimulated CD23 upregulation in human Ramos B cells (JAK-1/JAK-3, Stat-6); experiment: Assay for Ramos B-Cell Line Stimulated with IL-4 (CD23 upregulation, FACS); conditions: Table III Example 3
Procedure, shortened: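 Flow cytometry of CD23 staining after 20-24 h IL-4 stimulation (50 units/mL final) of human Ramos B cells in RPMI with 5% serum. Cells, 5×10^4 per point, received compound or DMSO vehicle for 1 h at 37° C prior to stimulation.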

| IC50 ([1]; Homo sapiens, U-937) [nM] | IC50 ([3]; Homo sapiens, Ramos) [nM] | SMILES | IC50 [1] [nM] | IC50 [2] [nM] | IC50 [3] [nM] | IC50 ([2]; Homo sapiens, T-cell) [nM] |
| --- | --- | --- | --- | --- | --- | --- |
|  |  | Cc1cnc(Nc2ccc(S(N)(=O)=O)cc2)nc1Nc1ccc(CNS(=O)(=O)C2CC2)cc1 [Compound I-45, N2-(4-aminosulfonyl)phenyl-N4-(4-cyclopropylsulfonylaminomethyl)phenyl-5-methyl-2,4-pyrimidinediamine] | 284 | 29.3 | 59.8 |  |
|  |  | CCS(=O)(=O)NCCc1ccc(Nc2nc(Nc3ccc(S(N)(=O)=O)cc3)ncc2C)cc1 [Compound I-38, N2-(4-aminosulfonyl)phenyl-N4-[4-(2-ethylsulfonylamino)ethyl]phenyl-5-methyl-2,4-pyrimidinediamine] | 855 | 190 | 122 |  |
|  |  | Cc1ccc(Nc2ncc(C)c(Nc3ccc(CNS(=O)(=O)c4cccnc4)cc3)n2)cc1S(N)(=O)=O [Compound I-101, N2-(3-aminosulfonyl-4-methyl)phenyl-5-methyl-N4-[4-(pyrid-3-yl)sulfonylaminomethyl]phenyl-2,4-pyrimidinediamine] | 433 | 224 | 62.4 |  |
| 4530 | 227 | C#CCNS(=O)(=O)Cc1cccc(Nc2nc(Nc3cccc(S(N)(=O)=O)c3)ncc2F)c1 [Compound I-3, N2-(3-Aminosulfonylphenyl)-5-fluoro-N4-[3-(prop-2-ynylaminosulfonylmethyl)phenyl]-2,4-pyrimidinediamine] |  |  |  | 458 |
|  |  | CCS(=O)(=O)NCc1ccc(Nc2nc(Nc3ccc(S(N)(=O)=O)cc3)ncc2C)cc1 [Compound I-20, N2-(4-aminosulfonyl)phenyl-N4-(4-ethylsulfonylaminomethyl)phenyl-5-methyl-2,4-pyrimidinediamine] | 621 | 46.1 | 73.6 |  |
|  |  | CCCNS(=O)(=O)c1cc(Nc2ncc(C)c(Nc3cccc(CNS(=O)(=O)C4CC4)c3)n2)ccc1C [Compound I-215, N4-(3-cyclopropylsulfonylaminomethyl)phenyl-5-methyl-N2-(4-methyl-3-propylaminosulfonyl)phenyl-2,4-pyrimidinediamine] | 385 | 116 | 132 |  |
|  |  | C#CCNS(=O)(=O)c1cc(Nc2ncc(C)c(Nc3cccc(CNS(=O)(=O)C4CC4)c3)n2)ccc1C [Compound I-214, N4-(3-cyclopropylsulfonylaminomethyl)phenyl-5-methyl-N2-(4-methyl-3-propargylaminosulfonyl)phenyl-2,4-pyrimidinediamine] | 190 | 136 | 162 |  |
|  |  | Cc1cnc(Nc2ccc(S(N)(=O)=O)cc2)nc1Nc1ccc(CNS(=O)(=O)CC(F)(F)F)cc1 [Compound I-96, N2-(4-aminosulfonyl)phenyl-5-methyl-N4-(4-trifluoroethylsulfonylaminomethyl)phenyl-2,4-pyrimidinediamine] | 3670 | 105 | 74.4 |  |
|  |  | Cc1ccc(Nc2ncc(C)c(Nc3cccc(CNS(=O)(=O)C4CC4)c3)n2)cc1S(=O)(=O)NCC1CC1 [Compound I-216, N2-(3-cyclopropylmethylaminosulfonyl-4-methyl)phenyl-N4-(3-cyclopropylsulfonylaminomethyl)phenyl-5-methyl-2,4-pyrimidinediamine] | 590 | 154 | 161 |  |
|  |  | Cc1cnc(Nc2ccc(S(=O)(=O)NCC3CC3)cc2)nc1Nc1ccc(CNS(=O)(=O)C2CC2)cc1 [Compound I-179, N2-(4-cyclopropylmethylaminosulfonyl)phenyl-N4-(4-cyclopropylsulfonylaminomethyl)phenyl-5-methyl-2,4-pyrimidinediamine] | 365 | 290 | 45.9 |  |
|  |  | CCS(=O)(=O)N[C@H](C)c1ccc(Nc2nc(Nc3ccc(C)c(S(N)(=O)=O)c3)ncc2F)cc1 [Compound I-31, N2-(3-aminosulfonyl-4-methyl)phenyl-N4-[4-(1R-ethylsulfonylamino)ethyl]phenyl-5-fluoro-2,4-pyrimidinediamine] | 1020 | 283 | 104 |  |
|  |  | CCS(=O)(=O)N[C@@H](C)c1ccc(Nc2nc(Nc3ccc(C)c(S(N)(=O)=O)c3)ncc2F)cc1 [Compound I-28, N2-(3-aminosulfonyl-4-methyl)phenyl-N4-[4-(1S-ethylsulfonylamino)ethyl]phenyl-5-fluoro-2,4-pyrimidinediamine] | 1110 | 376 | 115 |  |
|  |  | CCS(=O)(=O)NCCc1ccc(Nc2nc(Nc3ccc(S(N)(=O)=O)cc3)ncc2F)cc1 [Compound I-14, N2-(4-aminosulfonyl)phenyl-N4-[4-(2-ethylsulfonylamino)ethyl]phenyl-5-fluoro-2,4-pyrimidinediamine] | 5270 | 835 | 144 |  |
|  |  | CCS(=O)(=O)NCc1ccc(Nc2nc(Nc3ccc(S(N)(=O)=O)cc3)ncc2F)cc1 [Compound I-8, N2-(4-aminosulfonyl)phenyl-N4-(4-ethylsulfonylaminomethyl)phenyl-5-fluoro-2,4-pyrimidinediamine] | 3250 | 275 | 235 |  |
|  |  | CCS(=O)(=O)NCc1ccc(Nc2nc(Nc3cccc(S(N)(=O)=O)c3)ncc2F)cc1 [Compound I-9, N2-(3-aminosulfonyl)phenyl-N4-(4-ethylsulfonylaminomethyl)phenyl-5-fluoro-2,4-pyrimidinediamine] | 993 | 70.2 | 80.1 |  |
|  |  | CCNS(=O)(=O)c1ccc(Nc2ncc(C)c(Nc3cccc(CNS(=O)(=O)C4CC4)c3)n2)cc1 [Compound I-212, N4-(3-cyclopropylsulfonylaminomethyl)phenyl-N2-(4-ethylaminosulfonyl)phenyl-5-methyl-2,4-pyrimidinediamine] | 215 | 160 | 236 |  |
|  |  | NS(=O)(=O)c1cccc(Nc2ncc(F)c(Nc3ccc(CNS(=O)(=O)C4CC4)cc3)n2)c1 [Compound I-24, N2-(3-aminosulfonyl)phenyl-N4-(4-cyclopropylsulfonylaminomethyl)phenyl-5-fluoro-2,4-pyrimidinediamine] | 508 | 32 | 59.2 |  |
|  |  | CCCNS(=O)(=O)c1ccc(Nc2ncc(C)c(Nc3ccc(CNS(=O)(=O)C4CC4)cc3)n2)cc1 [Compound I-177, N4-(4-cyclopropylsulfonylaminomethyl)phenyl-5-methyl-N2-(4-propylaminosulfonyl)phenyl-2,4-pyrimidinediamine] | 107 | 160 | 17.7 |  |
|  |  | COCCCNS(=O)(=O)c1cc(Nc2ncc(C)c(Nc3cccc(CNS(=O)(=O)C4CC4)c3)n2)ccc1C [Compound I-217, N4-(3-cyclopropylsulfonylaminomethyl)phenyl-N2-[3-(3-methoxypropyl)aminosulfonyl-4-methyl]phenyl-5-methyl-2,4-pyrimidinediamine] | 496 | 129 | 80.2 |  |
|  |  | CCCN(Cc1ccc(Nc2nc(Nc3ccc(C)c(S(N)(=O)=O)c3)ncc2C)cc1)S(=O)(=O)C1CC1 [Compound I-81, N2-(3-aminosulfonyl-4-methyl)phenyl-N4-[4-(N-cyclopropylsulfonyl-N-propylamino)methyl]phenyl-5-methyl-2,4-pyrimidinediamine] | 215 | 89.2 | 73.6 |  |
